One test addresses HMG CoA Reductase. The test can be described thus: HMG CoA reductase inhibition, similar experiments with phenylhydroxy compounds of U.S. Pat. No. 5,385,929, Table 2. It counts as biochemical. The following applies: compared to atorvastatin. As to the method:
(§1) Res. Comm., 50, 859 (1973).
(§2) HMG-CoA reductase is regarded as a rate-limiting enzyme in cholesterol biosynthesis, catalyzing the following reaction: [^14C]HMG-CoA+2NADPH+2H+[^14C]mevanolate+CoA+2NADP+microsomes, utilizing 2.5 mM [^14C] HMG-CoA as a substrate.
(§3) The reaction was carried out in presence of 100 mM KH2PO4, 20 mM G-6-P, 2.5 mM NADPH, 10 mM EDTA, 5 mM DTT and […], at 37° C. for 15 minutes and quantitating [^14C] mevalonate as an end product.

In the next test the target is HMG-CoA reductase. The test can be described thus: in-vitro HMG-CoA reductase enzyme assay ([14C]mevalonate formation, liver microsomes), Table 1. It counts as biochemical. The following applies: preincubated 37° C. 30 minutes, [14C] HMG-CoA substrate. How it is done:
as §1, §2, §3
(Microsomes from liver hold many membrane-bound enzymes, among them those of drug oxidation.)

One may read the IC50 as the concentration needed to halve the response being measured.

Where a name gives a salt, the structure may show the parent alone.

`CC(C)c1c(C(=O)Nc2cccc(O)c2)c(-c2ccccc2)c(-c2ccc(F)cc2)n1CCC(O)CC(O)CC(=O)O` (stereo not drawn) [Meta-hydroxyatorvastatin] yielded a 50% inhibitory concentration (IC50) at HMG CoA Reductase of 0.199 nM. That is a sub-nanomolar value. The compound `COc1ccc(NC(=O)c2c(-c3ccccc3)c(-c3ccccc3)n(CC[C@@H](O)C[C@@H](O)CC(=O)O)c2C(C)C)c(OC)c1` [S.No. 5, 7-[3-(2.4-dimethoxyphenylcarbamoyl)-4.5-diphenyl-2-(1-methylethyl-pyrrol-1-yl]-3R,5R-dihydroxy-heptanoic acid calcium salt] had an IC50 against HMG-CoA reductase of 0.0563 nM. In turn, `COc1ccc(NC(=O)c2c(-c3ccccc3)c(-c3ccc(F)cc3)n(CC[C@@H](O)C[C@@H](O)CC(=O)O)c2C2CC2)c(OC)c1` [S.No. 3, 7-[3-(2,4-dimethoxyphenylcarbamoyl)-5-(4-fluorophenyl)-2-(cyclopropyl)-4-phenyl-pyrrol-1-yl]-3R,5R-dihydroxy-heptanoic acid calcium salt] registered an IC50 on HMG-CoA reductase of 0.00948 nM. In turn, `CC(C)c1c(C(=O)Nc2ccccc2O)c(-c2ccccc2)c(-c2ccc(F)cc2)n1CC[C@@H](O)C[C@@H](O)CC(=O)O` [Ortho-hydroxyatorvastatin] returned an IC50 on HMG CoA Reductase of 0.264 nM. On HMG-CoA reductase, `COc1cc(NC(=O)c2c(-c3ccccc3)c(-c3ccc(F)cc3)n(CC[C@@H](O)C[C@@H](O)CC(=O)O)c2C(C)C)cc(OC)c1` [Example 1, 7-[3-(3,5-dimethoxyphenylcarbamoyl)-5-(4-fluorophenyl)-2-(1-methylethyl)4-phenyl-pyrrol-1-yl]-3R,5R-dihydroxy-heptanoic acid calcium salt] displayed an IC50 of 0.022 nM. As for `CC(C)c1c(C(=O)Nc2ccc(O)cc2)c(-c2ccccc2)c(-c2ccc(F)cc2)n1CC[C@@H](O)C[C@@H](O)CC(=O)O` [Para-hydroxyatorvastatin], the IC50 on HMG CoA Reductase was 0.476 nM.

The values above are taken from patent US20060211761A1, “Hmg-coa-reductase inhibitors” (priority 2002, published 2006).
